# From patent US5112944A, “Cyclic tetrapeptide and process for preparing the same” (Shionogi & Co., Ltd., priority 1989, dated 1992)
# Where a SMILES comes first, the peptide text is derived from it. [ ]: non-standard residue; d: D form. Aoe = N[C@@H](CCCCCC(=O)[C@@H]1CO1)C(=O)O; dPip = O=C(O)[C@H]1CCCCN1
# Legend:
# [1] = tested on: NIH3T3 cells transformed with sis oncogene; test: Detransformation activity (return of transformed cells to normal flat morphology); format: cell-based
# Protocol: (§1) The employed culture solution was prepared by adding 9.5 g of DALBECCO'S EAGLE MEM medium (made by NISSUI SEIYAKU CO., LTD.) and 20 ml of 7% sodium bicarbonate to 1 l of distilled water and then adding fetal bovine serum (made by Flow Laboratories, Inc., U.S.A.) to be 10% by volume at the final concentration.
# (§2) To each well of a 12-well plastic dish made by Flow Laboratories, Inc., 2 ml of the above-mentioned culture solution, 2×10^4 cells/ml of NIH3T3 cells transformed with sis oncogene (provided by National Cancer Institute of the U.S.; Science, 218, 1131 (1982)) and each test compound (RF-1023-A or RF-1023-B) in each concentration (5 to 400 ng/ml) were added and cultured at 37° C. in 5% CO2 incubator. Twenty-four hours later the morphology of the cells was observed and detransformation activity (activity for inhibiting transformation of NIH3T3 cells transformed with the oncogene and returning to normal flat morphology of cells) was estimated. Two days after the incubation, cells subjected to the medium containing RF-1023-A were dispersed with 0.05% trypsin, and the cell number was measured by means of hemocytometer.
# [2] = tested on: NIH3T3 cells transformed with sis oncogene; test: Cell number / cell proliferation of transformed cells (hemocytometer); format: cell-based; settings: for Cell number: 2 days after the incubation; for Percentage of increase: 2 days, untreated = 100
# Protocol: as §1, §2
# [3] = 24 hours, lowest concentration tested
SMILES,"Concentration at which detransformation activity is shown [1, 3] [ng/mL]",Cell number ([2]; 5 ng/ml test compound),Percentage of increase ([2]; 5 ng/ml test compound) [%],Cell number ([2]; 50 ng/ml test compound),Percentage of increase ([2]; 50 ng/ml test compound) [%],Cell number ([2]; 100 ng/ml test compound),Percentage of increase ([2]; 100 ng/ml test compound) [%],Cell number ([2]; 200 ng/ml test compound),Percentage of increase ([2]; 200 ng/ml test compound) [%],Cell number ([2]; 400 ng/ml test compound),Percentage of increase ([2]; 400 ng/ml test compound) [%],Concentration at which detransformation activity is shown ([1]; same experiment system) [ng/mL]
O=C1N[C@@H](Cc2ccccc2)C(=O)N2CCCC[C@@H]2C(=O)N[C@@H](CCCCCC(=O)[C@@H]2CO2)C(=O)N[C@H]1Cc1ccccc1 [RF-1023-A] (cyclo([Aoe]FF[dPip])),5,3.8 × 10^5,35,3.4 × 10^5,29,1.5 × 10^5,0,1.1 × 10^5,-6,1.1 × 10^5,-6,
O=C1N[C@@H](Cc2ccccc2)C(=O)N2CCC[C@@H]2C(=O)N[C@@H](CCCCCC(=O)[C@@H]2CO2)C(=O)N[C@H]1Cc1ccccc1 [RF-1023-B] (cyclo(FF[dP][Aoe])),5,,,,,,,,,,,
"CC(=O)NCCCCCCNC(C)=O [hexamethylene bisacetamide, reference compound]",,,,,,,,,,,,3e+06
